# Where a name gives a salt, the structure may show the parent alone.
# Molecular target: T1, TBK1 (Homo sapiens, UniProt Q9UHD2)
# T1 construct: All protein kinases were of human origin and encoded full length proteins, unless indicated otherwise; His6; made in house; host or cells: insect Sf21 cells
# T1 sequence (Q9UHD2 1-729): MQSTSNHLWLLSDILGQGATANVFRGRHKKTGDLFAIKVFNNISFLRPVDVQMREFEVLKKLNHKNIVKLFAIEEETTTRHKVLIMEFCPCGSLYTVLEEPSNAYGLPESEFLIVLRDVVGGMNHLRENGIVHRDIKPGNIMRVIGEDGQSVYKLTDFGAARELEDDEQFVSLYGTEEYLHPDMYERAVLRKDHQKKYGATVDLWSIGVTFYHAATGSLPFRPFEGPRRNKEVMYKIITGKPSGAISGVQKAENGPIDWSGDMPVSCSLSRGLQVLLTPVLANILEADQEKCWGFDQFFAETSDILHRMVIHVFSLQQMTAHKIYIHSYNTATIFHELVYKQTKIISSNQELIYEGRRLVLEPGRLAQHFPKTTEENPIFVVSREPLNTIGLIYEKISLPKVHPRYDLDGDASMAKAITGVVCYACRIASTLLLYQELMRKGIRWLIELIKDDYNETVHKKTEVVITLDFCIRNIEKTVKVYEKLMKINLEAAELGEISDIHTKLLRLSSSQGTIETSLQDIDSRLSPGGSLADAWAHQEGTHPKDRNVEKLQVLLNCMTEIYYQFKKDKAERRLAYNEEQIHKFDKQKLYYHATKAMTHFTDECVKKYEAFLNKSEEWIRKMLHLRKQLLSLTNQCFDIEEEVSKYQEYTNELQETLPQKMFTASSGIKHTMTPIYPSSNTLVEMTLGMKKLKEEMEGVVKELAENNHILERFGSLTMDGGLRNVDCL
# Assay: TBK1 protein kinase assay ([γ-33P]ATP, P81 filterplates)
# Type: biochemical
# Details: 50 μM ATP; read-out: Potency (TBK1 IC50 potency score)
# Source text: All protein kinases were of human origin and encoded full length proteins, unless indicated otherwise. They were either expressed as glutathione S-transferase (GST) fusion proteins in Escherichia Coli or as hexahistidine (His6)-tagged proteins in insect Sf21 cells. GST fusion proteins were purified by affinity chromatography on glutathione-Sepharose, and His6-tagged proteins on nickel/nitriloacetate-agarose. The procedures for expressing some of the protein kinases used herein have been detailed previously.^8,9 The following sections outline the DNA vectors synthesised and the procedures used to express and purifying protein kinases that have not been reported previously.
# The following kinases were expressed in Sf21 cells: Aurora B and Aurora C, extra-cellular signal-regulated kinase 8 (ERK8), microtubule affinity regulating kinase 3 (MARK3), protein kinase Bα[118-480][S473D], protein kinase Bβ (PKBβ[120-481][S474D], 3-phosphoinositide-dependent protein kinase-1 [52-556]
# Assays were performed for 30 min using Multidrop Micro reagent dispensers (Thermo Electron Corporation, Waltham, Mass. 02454, USA) in a 96-well format. The concentration of magnesium acetate in the assays was 10 mM and the [γ-33P] ATP (800 cpm/pmol) was used at 5, 20 or 50 μM as indicated, in order to be at or below the Km for ATP for each enzyme. Protein kinases assayed at 5 μM ATP were: —ERK1, ERK8, PKBα, MARK3, Aurora C. Protein kinases assayed at 20 μM ATP were: —JNK1, PDK1, CHK1, CHK2, CDK2 and Aurora B. Protein kinases assayed at 50 μM ATP were: —MNK2, IKKepsilon and TBK1.
# The assays were initiated with MgATP, stopped by addition of 5 μl of 0.5 M orthophosphoric acid and spotted on to P81 filterplates using a unifilter harvester (PerkinElmer, Boston, Mass. 02118, USA). The IC50 values of inhibitors were determined after carrying out assays at 10 different concentrations of each compound.
# ERK1 and ERK8 were both assayed against myelin basic protein (MBP, 0.33 mg/ml). MARK3 was assayed against the peptide […] (300 μM), MNK2 against the eIF4E protein (0.5 mg/ml). PKBβ was assayed against the peptide […] (30 μM). TBK1 were assayed against ([…]) (300 μM). The substrates used for other protein kinases were described previously.^8,9
# Unless stated otherwise, enzymes were diluted in 50 mM Tris/HCl pH 7.5, 0.1 mM EGTA, 1 mg/ml BSA, 0.1% (v/v) 2-mercaptoethanol and assayed in 50 mM Tris/HCl pH 7.5, 0.1 mM EGTA, 0.1% (v/v) 2-mercaptoethanol.
row,IC50 [nM],SMILES
1,100 to 1000,"O=C(NCCCNc1nc(Nc2cccc(N3CCOCC3)c2)ncc1C1CC1)c1cccs1 [Example 46, Thiophene-2-carboxylic acid {3-[5-cyclopropyl-2-(3-morpholin-4-yl-phenylamino)-pyrimidin-4-ylamino]-propyl}-amide trifluoroacetic acid salt]"
2,< 100,"O=C(NCCCNc1nc(Nc2cccc(N3CCCC3=O)c2)ncc1C1CC1)C1CCC1 [Example 48, Cyclobutanecarboxylic acid (3-{5-cyclopropyl-2-[3-(2-oxo-pyrrolidin-1-yl)-phenylamino]-pyrimidin-4-ylamino}-propyl)-amide]"
3,< 100,"O=C(NCCCNc1nc(Nc2cccc(NC(=O)N3CCCC3)c2)ncc1C1CC1)c1cccs1 [Example 49, Pyrrolidine-1-carboxylic acid [3-(5-cyclopropyl-4-{3-[(thiophene-2-carbonyl)-amino]-propylamino}-pyrimidin-2-ylamino)-phenyl]-amide]"
4,< 100,"CC(=O)Nc1cccc(Nc2ncc(C3CC3)c(NCCCNC(=O)c3cccs3)n2)c1 [Example 51, Thiophene-2-carboxylic acid {3-[2-(3-acetylamino-phenylamino)-5-cyclopropyl-pyrimidin-4-ylamino]-propyl}-amide]"
5,100 to 1000,"O=C(NCCCNc1nc(Nc2ccccc2F)ncc1C1CC1)c1cccs1 [Example 52, Thiophene-2-carboxylic acid {3-[5-cyclopropyl-2-(2-fluoro-phenylamino)-pyrimidin-4-ylamino]-propyl}-amide]"
6,1000 to 10000,"O=C(NCCCNc1nc(Nc2ccc3cnccc3c2)ncc1C1CC1)c1cccs1 [Example 53, Thiophene-2-carboxylic acid {3-[5-cyclopropyl-2-(isoquinolin-6-ylamino)-pyrimidin-4-ylamino]-propyl}-amide]"
7,< 100,"O=C(NCCCNc1nc(Nc2ccc(N3CCOCC3)nc2)ncc1C1CC1)c1cccs1 [Example 54, Thiophene-2-carboxylic acid {3-[5-cyclopropyl-2-(6-morpholin-4-yl-pyridin-3-ylamino)-pyrimidin-4-ylamino]-propyl}-amide]"
8,100 to 1000,"O=C(NCCCNc1nc(Nc2cccc(Cl)c2)ncc1C1CC1)c1cccs1 [Example 55, Thiophene-2-carboxylic acid {3-[2-(3-chloro-phenylamino)-5-cyclopropyl-pyrimidin-4-ylamino]-propyl}-amide]"
9,100 to 1000,"O=C(NCCCNc1nc(Nc2ccc3nccnc3c2)ncc1C1CC1)c1cccs1 [Example 56, Thiophene-2-carboxylic acid {3-[5-cyclopropyl-2-(quinoxalin-6-ylamino)-pyrimidin-4-ylamino]-propyl}-amide]"
10,100 to 1000,"O=C(NCCCNc1nc(Nc2ccccc2)ncc1C1CC1)c1cccs1 [Example 57, Thiophene-2-carboxylic acid [3-(5-cyclopropyl-2-phenylamino-pyrimidin-4-ylamino)-propyl]-amide]"
11,100 to 1000,"O=C(NCCCNc1nc(Nc2ccc(F)cc2)ncc1C1CC1)c1cccs1 [Example 58, Thiophene-2-carboxylic acid {3-[5-cyclopropyl-2-(4-fluoro-phenylamino)-pyrimidin-4-ylamino]-propyl}-amide]"
12,1000 to 10000,"Cc1ccccc1Nc1ncc(C2CC2)c(NCCCNC(=O)c2cccs2)n1 [Example 59, Thiophene-2-carboxylic acid [3-(5-cyclopropyl-2-o-tolylamino-pyrimidin-4-ylamino)-propyl]-amide]"
13,100 to 1000,"Cc1nc2cc(Nc3ncc(C4CC4)c(NCCCNC(=O)c4cccs4)n3)ccc2s1 [Example 60, Thiophene-2-carboxylic acid {3-[5-cyclopropyl-2-(2-methyl-benzothiazol-5-ylamino)-pyrimidin-4-ylamino]-propyl}-amide]"
14,100 to 1000,"N#Cc1cccc(Nc2ncc(C3CC3)c(NCCCNC(=O)c3cccs3)n2)c1 [Example 61, Thiophene-2-carboxylic acid {3-[2-(3-cyano-phenylamino)-5-cyclopropyl-pyrimidin-4-ylamino]-propyl}-amide]"
15,1000 to 10000,"O=C(NCCCNc1nc(Nc2ccc3[nH]c(C(F)(F)F)nc3c2)ncc1C1CC1)c1cccs1 [Example 62, Thiophene-2-carboxylic acid {3-[5-cyclopropyl-2-(2-trifluoromethyl-1H-benzimidazol-5-ylamino)-pyrimidin-4-ylamino]-propyl}-amide]"
16,100 to 1000,"O=C(NCCCNc1nc(Nc2ccncc2)ncc1C1CC1)c1cccs1 [Example 63, Thiophene-2-carboxylic acid {3-[5-cyclopropyl-2-(pyridin-4-ylamino)-pyrimidin-4-ylamino]-propyl}-amide]"
17,< 100,"O=C(NCCCNc1nc(Nc2cncc(F)c2)ncc1C1CC1)C1CCC1 [Example 64, Cyclobutanecarboxylic acid {3-[5-cyclopropyl-2-(5-fluoro-pyridin-3-ylamino)-pyrimidin-4-ylamino]-propyl}-amide]"
18,< 100,"O=C(NCCCNc1nc(Nc2cccnc2)ncc1C1CC1)C1CCC1 [Example 65, Cyclobutanecarboxylic acid {3-[5-cyclopropyl-2-(pyridin-3-ylamino)-pyrimidin-4-ylamino]-propyl}-amide]"
19,< 100,"O=C(NCCCNc1nc(Nc2cccnc2)ncc1C1CC1)C1CCCC1 [Example 66, Cyclopentanecarboxylic acid {3-[5-cyclopropyl-2-(pyridin-3-ylamino)-pyrimidin-4-ylamino]-propyl}-amide]"
20,< 100,"CC(=O)Nc1cccc(Nc2ncc(C3CC3)c(NCCCNC(=O)C3CCCC3)n2)c1 [Example 67, Cyclopentanecarboxylic acid {3-[2-(3-acetylamino-phenylamino)-5-cyclopropyl-pyrimidin-4-ylamino]-propyl}-amide]"
21,< 100,"CC(=O)Nc1cccc(Nc2ncc(C3CC3)c(NCCCNC(=O)C3CCC3)n2)c1 [Example 68, Cyclobutanecarboxylic acid {3-[2-(3-acetylamino-phenylamino)-5-cyclopropyl-pyrimidin-4-ylamino]-propyl}-amide]"
22,< 100,"Nc1cccc(Nc2ncc(C3CC3)c(NCCCNC(=O)c3cccs3)n2)c1 [Example 69, Thiophene-2-carboxylic acid {3-[2-(3-amino-phenylamino)-5-cyclopropyl-pyrimidin-4-ylamino]-propyl}-amide]"
23,< 100,"O=C(NCCCNc1nc(Nc2cccc(CO)c2)ncc1C1CC1)C1CCC1 [Example 70, Cyclobutanecarboxylic acid {3-[5-cyclopropyl-2-(3-hydroxymethyl-phenylamino)-pyrimidin-4-ylamino]-propyl}-amide. xHCl salt]"
24,< 100,"O=C(O)c1cccc(Nc2ncc(C3CC3)c(NCCCNC(=O)C3CCC3)n2)c1 [Example 71, 3-{4-[3-(Cyclobutanecarbonyl-amino)-propylamino]-5-cyclopropyl-pyrimidin-2-ylamino}-benzoic acid hydrochloride salt]"
25,< 100,"O=C(NCCCNc1nc(Nc2cc(F)cc(F)c2)ncc1C1CC1)C1CCC1 [Example 72, Cyclobutanecarboxylic acid {3-[5-cyclopropyl-2-(3,5-difluoro-phenylamino)-pyrimidin-4-ylamino]-propyl}-amide. Hydrochloride salt]"
